# From ChEMBL document CHEMBL4346703, “Structure Overhaul Affords a Potent Purine PI3Kδ Inhibitor with Improved Tolerability” (J Med Chem, 2019)
# Key:
# [1] = target: T1, Phosphatidylinositol 4,5-bisphosphate 3-kinase catalytic subunit delta isoform (Homo sapiens, UniProt O00329); experiment: Inhibition of PI3Kdelta in human whole blood assessed as reduction in anti-CD79b antibody-induced CD69 expression preincubated for 60 mins followed by anti-CD79b antibody stimulation and measured after 3 hrs by FACS analysis; type: tissue-based
# T1 sequence (O00329 whole entry): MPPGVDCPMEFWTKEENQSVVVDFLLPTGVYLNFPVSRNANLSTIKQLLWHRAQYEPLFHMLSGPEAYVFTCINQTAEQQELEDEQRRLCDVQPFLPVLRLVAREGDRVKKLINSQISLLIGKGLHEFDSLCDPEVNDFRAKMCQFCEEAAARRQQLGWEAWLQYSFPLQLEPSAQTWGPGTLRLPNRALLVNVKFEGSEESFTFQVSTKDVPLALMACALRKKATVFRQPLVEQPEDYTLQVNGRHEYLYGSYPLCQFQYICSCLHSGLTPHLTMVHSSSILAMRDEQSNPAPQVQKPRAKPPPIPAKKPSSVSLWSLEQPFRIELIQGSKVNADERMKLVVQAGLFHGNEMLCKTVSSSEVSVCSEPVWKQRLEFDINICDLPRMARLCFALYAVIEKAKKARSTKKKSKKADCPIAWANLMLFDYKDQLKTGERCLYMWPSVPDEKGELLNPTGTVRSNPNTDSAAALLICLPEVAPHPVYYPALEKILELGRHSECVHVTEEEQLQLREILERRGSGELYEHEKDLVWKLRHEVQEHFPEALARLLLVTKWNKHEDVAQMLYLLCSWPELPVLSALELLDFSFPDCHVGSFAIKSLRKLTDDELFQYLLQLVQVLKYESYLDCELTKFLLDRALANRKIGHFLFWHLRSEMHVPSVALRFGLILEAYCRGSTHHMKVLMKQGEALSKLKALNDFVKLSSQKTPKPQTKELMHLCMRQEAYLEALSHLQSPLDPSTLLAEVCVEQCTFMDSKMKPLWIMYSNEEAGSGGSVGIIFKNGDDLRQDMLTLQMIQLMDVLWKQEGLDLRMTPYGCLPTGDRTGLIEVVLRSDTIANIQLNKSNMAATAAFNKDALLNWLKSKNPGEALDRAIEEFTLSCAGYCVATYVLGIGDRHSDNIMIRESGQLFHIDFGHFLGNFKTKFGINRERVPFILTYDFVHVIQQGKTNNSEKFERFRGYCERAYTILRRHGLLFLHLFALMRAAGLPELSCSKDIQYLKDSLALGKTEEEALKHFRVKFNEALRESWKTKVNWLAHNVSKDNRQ
# Phosphodiesterase 1 = Phosphodiesterase 1 (Homo sapiens, UniProt P54750+Q01064+Q14123); experiment: Inhibition of PDE1 (unknown origin); type: protein assay
# [2] = target: cGMP-specific 3',5'-cyclic phosphodiesterase (Homo sapiens, UniProt O76074); experiment: Inhibition of PDE5 (unknown origin)
# [3] = target: High affinity cAMP-specific and IBMX-insensitive 3',5'-cyclic phosphodiesterase 8A (Homo sapiens, UniProt O60658); experiment: Inhibition of PDE8 (unknown origin)
# Sequence of High affinity cAMP-specific and IBMX-insensitive 3',5'-cyclic phosphodiesterase 8A (O60658 whole entry): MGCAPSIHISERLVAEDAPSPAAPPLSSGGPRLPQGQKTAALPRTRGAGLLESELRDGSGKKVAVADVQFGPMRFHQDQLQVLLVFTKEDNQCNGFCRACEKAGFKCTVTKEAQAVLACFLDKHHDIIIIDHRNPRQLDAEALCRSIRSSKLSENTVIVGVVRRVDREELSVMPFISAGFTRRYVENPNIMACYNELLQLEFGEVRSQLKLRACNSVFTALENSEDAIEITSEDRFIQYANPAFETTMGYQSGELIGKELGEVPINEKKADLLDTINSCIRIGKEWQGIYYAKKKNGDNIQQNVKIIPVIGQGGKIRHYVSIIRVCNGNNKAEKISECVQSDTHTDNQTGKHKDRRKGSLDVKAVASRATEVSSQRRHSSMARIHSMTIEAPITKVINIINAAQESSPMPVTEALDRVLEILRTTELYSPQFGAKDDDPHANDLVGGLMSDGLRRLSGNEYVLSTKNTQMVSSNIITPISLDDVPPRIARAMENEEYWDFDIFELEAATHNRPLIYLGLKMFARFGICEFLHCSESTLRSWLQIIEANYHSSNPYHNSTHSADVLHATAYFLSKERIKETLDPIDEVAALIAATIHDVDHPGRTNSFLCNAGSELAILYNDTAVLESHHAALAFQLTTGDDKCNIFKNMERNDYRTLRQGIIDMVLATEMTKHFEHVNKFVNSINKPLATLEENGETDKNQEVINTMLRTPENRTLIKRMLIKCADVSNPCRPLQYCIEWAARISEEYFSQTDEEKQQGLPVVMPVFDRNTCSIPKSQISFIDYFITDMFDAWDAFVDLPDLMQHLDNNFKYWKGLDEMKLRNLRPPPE
# [4] = target: Dual 3',5'-cyclic-AMP and -GMP phosphodiesterase 11A (Homo sapiens, UniProt Q9HCR9); experiment: Inhibition of PDE11 (unknown origin)
# Sequence of Dual 3',5'-cyclic-AMP and -GMP phosphodiesterase 11A (Q9HCR9 whole entry): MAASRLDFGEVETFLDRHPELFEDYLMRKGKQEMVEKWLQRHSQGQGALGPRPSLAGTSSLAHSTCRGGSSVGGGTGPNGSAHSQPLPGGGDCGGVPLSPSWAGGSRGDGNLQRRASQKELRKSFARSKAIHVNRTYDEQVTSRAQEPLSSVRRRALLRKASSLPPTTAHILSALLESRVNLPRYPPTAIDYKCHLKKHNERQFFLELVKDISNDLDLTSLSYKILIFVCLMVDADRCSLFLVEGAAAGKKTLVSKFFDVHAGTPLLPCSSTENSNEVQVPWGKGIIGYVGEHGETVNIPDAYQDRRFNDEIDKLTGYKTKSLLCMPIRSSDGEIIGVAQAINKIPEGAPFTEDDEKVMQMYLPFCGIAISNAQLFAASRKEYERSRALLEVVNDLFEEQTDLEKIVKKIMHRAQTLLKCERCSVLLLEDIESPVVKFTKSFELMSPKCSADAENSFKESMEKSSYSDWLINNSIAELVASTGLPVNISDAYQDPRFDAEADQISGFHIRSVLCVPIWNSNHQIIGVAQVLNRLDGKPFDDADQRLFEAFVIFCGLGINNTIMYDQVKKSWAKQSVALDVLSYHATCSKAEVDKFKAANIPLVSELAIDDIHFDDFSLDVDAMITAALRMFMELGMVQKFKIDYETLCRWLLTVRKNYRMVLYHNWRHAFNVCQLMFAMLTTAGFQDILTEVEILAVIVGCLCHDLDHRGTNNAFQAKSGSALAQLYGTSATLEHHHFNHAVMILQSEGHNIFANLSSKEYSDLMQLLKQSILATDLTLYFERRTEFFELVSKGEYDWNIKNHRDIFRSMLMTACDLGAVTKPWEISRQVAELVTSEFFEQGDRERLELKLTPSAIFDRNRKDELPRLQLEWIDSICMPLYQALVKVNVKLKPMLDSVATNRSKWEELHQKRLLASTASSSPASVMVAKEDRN
# [5] = Intrinsic clearance in Wistar Han rat at 0.5 mg/kg, iv or 1 mg/kg, po; type: ADME, organism-based; settings: in vivo
# [6] = Volume of distribution in Wistar Han rat; type: ADME; settings: in vivo
# [7] = Protein binding in Wistar Han rat plasma; type: ADME, cell-free; settings: read-out: PPB (converted)
# [8] = Intrinsic clearance in Beagle dog at 0.25 mg/kg, iv or 0.5 mg/kg, po; type: ADME, organism-based, Canis lupus familiaris; settings: in vivo
# [9] = Protein binding in Beagle dog plasma; type: ADME, cell-free, Canis lupus familiaris; settings: read-out: PPB (converted)
# [10] = Protein binding in human plasma; type: ADME, cell-free; settings: read-out: PPB (converted)
# Rattus norvegicus [11] = experiment: Hemodynamic activity in telemetered rat assessed as effect on arterial blood pressure at 60 mg/kg; type: ADME, organism-based; settings: in vivo
# Rattus norvegicus [12] = experiment: Hemodynamic activity in telemetered rat assessed as effect on heart rate at 60 mg/kg; type: ADME, organism-based; settings: in vivo
# [13] = fAUC in telemetered rat at 60 mg/kg; type: ADME, organism-based; settings: in vivo
# [14] = fCmax in telemetered rat at 60 mg/kg; type: ADME, organism-based; settings: in vivo
# [15] = fCmax in rat at 750 mg/kg administered for 4 days; type: ADME, organism-based; settings: in vivo, 96 h
# [16] = Toxicity in Beagle dogs assessed as body weight loss at 25 mg/kg administered for 8 days; type: organism-based, Canis lupus familiaris; settings: dog, in vivo, 192 h
# [17] = Toxicity in Beagle dogs assessed as vascular injury at 25 mg/kg administered for 8 days; type: organism-based, Canis lupus familiaris; settings: dog, in vivo, 192 h
# Canis familiaris = experiment: Hemodynamic activity in Beagle dog at 25 mg/kg administered for 8 days; type: ADME, organism-based, Canis lupus familiaris; settings: in vivo, 192 h
# [18] = Solubility of the compound; type: physicochemical
# Cytochrome P450 = experiment: Inhibition of cytochrome P450 (unknown origin); type: ADME, protein assay; settings: human
# [19] = Intrinsic clearance in rat microsomes; type: ADME, Microsome
compound,measurement,setting,value
CCn1ncc(-c2nc3c(O[C@H]4CCN(C(=O)C5CCOCC5)C4)ncnc3n2C)c1C,IC50,[1],0.36 µM
same,IC50,Phosphodiesterase 1,> 50 µM
same,IC50,[2],> 50 µM
same,IC50,[3],> 50 µM
same,IC50,[4],> 20 µM
same,CL,[5],126 mL/min/kg
same,Vd,[6],1.2 L/kg
same,fraction unbound,[7],0.73
same,CL,[8],10 mL/min/kg
same,fraction unbound,[9],0.74
same,fraction unbound,[10],0.83
same,Activity,Rattus norvegicus [11],Non-Toxic
same,Activity,Rattus norvegicus [12],Non-Toxic
same,fAUC,[13],61 µM·h
same,fCmax,[14],44 µM
same,fCmax,[15],200 µM
same,Activity,[16],Non-Toxic
same,Activity,[17],Non-Toxic
same,Activity,Canis familiaris,Non-Toxic
same,solubility,[18],> 10000 µg/mL
same,inhibition (INH),Cytochrome P450,Not Active
same,CLint scaled,[19],< 110 mL/min/kg
